{"source": "ChEMBL document CHEMBL5543173", "about": "“Discovery of a New Anti-Inflammatory Agent from Anemoside B4 Derivatives and Its Therapeutic Effect on Colitis by Targeting Pyruvate Carboxylase” (J Med Chem, 2024)", "key": {"[1]": {"test_system": "THP-1", "test": "Anti-inflammatory activity in human THP-1 cells assessed as decrease in LPS-induced phosphorylated p65 level pretreated for 1 hr followed by LPS treatment for 6 hrs by Western blot analysis", "assay_type": "functional, cell-based", "conditions": "dose 1-10 µM, time 7.0 hrs"}, "[2]": {"test_system": "THP-1", "test": "Anti-inflammatory activity in human THP-1 cells assessed as decrease in LPS-induced pro-IL-1beta level at 1 to 10 uM pretreated for 1 hr followed by LPS/ATP treatment for 6 hrs by Western blot analysis", "assay_type": "functional, cell-based", "conditions": "dose 1-10 µM, time 7.0 hrs"}, "[3]": {"test_system": "THP-1", "test": "Anti-inflammatory activity in human THP-1 cells assessed as decrease in LPS-induced P20 level at 1 to 10 uM pretreated for 1 hr followed by LPS/ATP treatment for 6 hrs by Western blot analysis", "assay_type": "functional, cell-based", "conditions": "dose 1-10 µM, time 7.0 hrs"}, "[4]": {"test_system": "THP-1", "test": "Anti-inflammatory activity in human THP-1 cells assessed as decrease in LPS-induced IL-1beta level at 1 to 10 uM pretreated for 1 hr followed by LPS/ATP treatment for 6 hrs by Western blot analysis", "assay_type": "functional, cell-based", "conditions": "dose 1-10 µM, time 7.0 hrs"}, "[5]": {"test_system": "THP-1", "test": "Anti-inflammatory activity in human THP-1 cells assessed as decrease in LPS-induced IL-6 level pretreated for 1 hr followed by LPS treatment for 24 hrs by ELISA", "assay_type": "functional, cell-based", "conditions": "dose 0.1-10 µM, time 25.0 hrs"}, "[6]": {"test_system": "Mus musculus", "test": "Anti-colitis activity in ICR mouse model of DSS-induced colitis assessed as decrease in DAI score at 15 to 60 mg/kg, IG treated for 9 days consecutively", "assay_type": "functional, organism-based", "conditions": "dose 15-60 mg/kg, time 9.0 day"}, "[7]": {"test_system": "Mus musculus", "test": "Anti-colitis activity in ICR mouse model assessed as reversal of DSS-induced colon shortening administered intragastrically for 9 days consecutively", "assay_type": "functional, organism-based", "conditions": "route ig, time 9.0 day"}, "[8]": {"test_system": "Mus musculus", "test": "Anti-colitis activity in ICR mouse model assessed as reversal of DSS-induced splenomegaly at 15 to 60 mg/kg, IG treated for 9 days consecutively", "assay_type": "functional, organism-based", "conditions": "dose 15-60 mg/kg, time 9.0 day"}, "[9]": {"test_system": "Mus musculus", "test": "Anti-colitis activity in ICR mouse model assessed as reversal of DSS-induced spleen weight at 15 to 60 mg/kg, IG treated for 9 days consecutively", "assay_type": "functional, organism-based", "conditions": "dose 15-60 mg/kg, time 9.0 day"}, "[10]": {"test": "Toxicity in ICR mouse assessed as change in kidney index at 300 mg/kg, IG measured for 9 days", "assay_type": "organism-based", "conditions": "in vivo, po, 216 h, time 9 day"}, "[11]": {"test": "Toxicity in ICR mouse assessed as change in colon index at 300 mg/kg, IG measured for 9 days", "assay_type": "organism-based", "conditions": "in vivo, po, 216 h, time 9 day"}, "[12]": {"test": "Toxicity in ICR mouse assessed as change in spleen index at 300 mg/kg, IG measured for 9 days", "assay_type": "organism-based", "conditions": "in vivo, po, 216 h, time 9 day"}, "[13]": {"test": "Tmax in ICR mouse at 15 mg/kg, IG measured for 12 hrs by LC-MS/MS analysis", "assay_type": "ADME, organism-based", "conditions": "in vivo, po"}, "[14]": {"test": "Cmax in ICR mouse at 15 mg/kg, IG measured for 12 hrs by LC-MS/MS analysis", "assay_type": "ADME, organism-based", "conditions": "in vivo, po"}, "[15]": {"test": "Tmax in colon of ICR mouse at 15 mg/kg, IG measured for 12 hrs by LC-MS/MS analysis", "assay_type": "ADME, organism-based", "conditions": "po"}, "[16]": {"test": "AUC (0 to t) in colon of ICR mouse at 15 mg/kg, IG measured for 12 hrs by LC-MS/MS analysis", "assay_type": "ADME, organism-based", "conditions": "po"}, "[17]": {"test": "MRT (0 to t) in colon of ICR mouse at 15 mg/kg, IG measured for 12 hrs by LC-MS/MS analysis", "assay_type": "ADME, organism-based", "conditions": "po"}, "[18]": {"test": "Cmax in Sprague-Dawley rat administered as hydroxypropyl-beta-cyclodextrin at 20 mg/kg, IG measured for 12 hrs by LC-MS/MS analysis", "assay_type": "ADME, organism-based", "conditions": "in vivo, po"}, "[19]": {"test": "MRT (0 to t) in […] administered as hydroxypropyl-beta-cyclodextrin at 20 mg/kg, IG measured for 12 hrs by LC-MS/MS analysis", "assay_type": "ADME, organism-based", "conditions": "in vivo, po"}, "[20]": {"test": "Stability in mouse liver microsomes assessed as intrinsic clearance at 10 uM preincubated for 5 mins followed by NADPH addition measured for 10 to 480 mins by LC-MS/MS analysis", "assay_type": "ADME, Microsome", "conditions": "time 15-485 min"}, "[21]": {"test": "Stability in mouse plasma assessed as half life at 10 uM preincubated for 5 mins followed by NADPH addition measured for 10 to 480 mins by LC-MS/MS analysis", "assay_type": "ADME, cell-free", "conditions": "time 15-485 min"}, "[22]": {"test_system": "THP-1", "test": "Anti-inflammatory activity in human THP-1 cells assessed as decrease in LPS-induced IL-6 level at 10 uM pretreated for 1 hr followed by LPS treatment for 24 hrs in presence of DADA by ELISA", "assay_type": "functional, cell-based", "conditions": "time 25.0 hrs"}, "[23]": {"test_system": "THP-1", "test": "Anti-inflammatory activity in human THP-1 cells assessed as decrease in LPS-induced TNF-alpha level at 10 uM pretreated for 1 hr followed by LPS treatment for 24 hrs in presence of DADA by ELISA", "assay_type": "functional, cell-based", "conditions": "time 25.0 hrs"}, "[24]": {"test_system": "Mus musculus", "test": "Anti-colitis activity in ICR mouse model assessed as decrease in DSS-induced DAI score at 15 to 60 mg/kg, IG treated for 8 days consecutively", "assay_type": "functional, organism-based", "conditions": "dose 15-60 mg/kg, time 8.0 day"}, "[25]": {"test_system": "Mus musculus", "test": "Anti-colitis activity in ICR mouse model assessed as decrease in DSS-induced DAI score at 60 mg/kg, IG treated for 8 days consecutively in presence of DADA", "assay_type": "functional, organism-based", "conditions": "time 8.0 day"}, "[26]": {"test_system": "Mus musculus", "test": "Anti-colitis activity in ICR mouse model assessed as decrease in DSS-induced epithelial cell injury in colon tissue at 15 to 60 mg/kg, IG treated for 8 days consecutively by H and E staining based analysis", "assay_type": "functional, organism-based", "conditions": "dose 15-60 mg/kg, time 8.0 day"}, "[27]": {"test_system": "Mus musculus", "test": "Anti-colitis activity in ICR mouse model assessed as decrease in DSS-induced apoptosis in colon tissue at 15 to 60 mg/kg, IG treated for 8 days consecutively by H and E staining based analysis", "assay_type": "functional, organism-based", "conditions": "dose 15-60 mg/kg, time 8.0 day"}, "[28]": {"test_system": "Mus musculus", "test": "Anti-colitis activity in ICR mouse model assessed as decrease in DSS-induced inflammatory cell infiltration in colon tissue at 60 mg/kg, IG treated for 8 days consecutively in presence of DADA by H and E staining based analysis", "assay_type": "functional, organism-based", "conditions": "time 8.0 day"}, "[29]": {"test_system": "Mus musculus", "test": "Anti-colitis activity in ICR mouse model assessed as decrease in DSS-induced apoptosis in colon tissue at 60 mg/kg, IG treated for 8 days consecutively in presence of DADA by H and E staining based analysis", "assay_type": "functional, organism-based", "conditions": "time 8.0 day"}, "[30]": {"test_system": "Mus musculus", "test": "Anti-colitis activity in ICR mouse model assessed as decrease in DSS-induced IL-6 level administered intragastrically treated for 8 days consecutively", "assay_type": "functional, organism-based", "conditions": "dose 15-60 mg/kg, route ig, time 8.0 day"}, "[31]": {"test_system": "Mus musculus", "test": "Anti-colitis activity in ICR mouse model assessed as decrease in DSS-induced IL-6 level at 60 mg/kg, IG treated for 8 days consecutively in presence of DADA", "assay_type": "functional, organism-based", "conditions": "time 8.0 day"}, "[32]": {"test_system": "Mus musculus", "test": "Anti-colitis activity in ICR mouse model assessed as increase in DSS-reduced pyruvate level at 60 mg/kg, IG treated for 8 days consecutively", "assay_type": "functional, organism-based", "conditions": "time 8.0 day"}, "[33]": {"test_system": "Mus musculus", "test": "Anti-colitis activity in ICR mouse model assessed as decrease in DSS-induced I-kappaB-alpha degradation in colon tissue at 60 mg/kg, IG treated for 8 days consecutively by Western blot analysis", "assay_type": "functional, organism-based", "conditions": "time 8.0 day"}, "[34]": {"test_system": "Mus musculus", "test": "Anti-colitis activity in ICR mouse model assessed as decrease in DSS-induced P65 phosphorylation in colon tissue at 60 mg/kg, IG treated for 8 days consecutively in presence of DADA by Western blot analysis", "assay_type": "functional, organism-based", "conditions": "time 8.0 day"}, "[35]": {"test_system": "Mus musculus", "test": "Anti-colitis activity in ICR mouse model of DSS-induced colitis assessed as effect on pyruvate carboxylase expression in colon tissue at 60 mg/kg, IG treated for 8 days consecutively by Western blot analysis", "assay_type": "functional, organism-based", "conditions": "time 8.0 day"}}, "note": "Active and inactive are the calls of the source. The rule behind the calls is not given here.", "data": [{"smiles": "C=C(C)[C@@H]1CC[C@]2(C(=O)NCCCCCC(=O)OC)CC[C@]3(C)[C@H](CC[C@@H]4[C@@]5(C)CC[C@H](O[C@@H]6OC[C@H](O)[C@H](O)[C@H]6O[C@@H]6O[C@@H](C)[C@H](O)[C@@H](O)[C@H]6O)[C@@](C)(CO)[C@@H]5CC[C@]43C)[C@@H]12", "values": [{"measurement": "Activity", "setting": "[1]", "value": "Dose-Dependent Effect"}, {"measurement": "Activity", "setting": "[2]", "value": "Active"}, {"measurement": "Activity", "setting": "[3]", "value": "Active"}, {"measurement": "Activity", "setting": "[4]", "value": "Active"}, {"measurement": "Activity", "setting": "[5]", "value": "Dose-Dependent Effect"}, {"measurement": "Activity", "setting": "[6]", "value": "Active"}, {"measurement": "Activity", "setting": "[7]", "value": "Dose-Dependent Effect"}, {"measurement": "Activity", "setting": "[8]", "value": "Active"}, {"measurement": "Activity", "setting": "[9]", "value": "Active"}, {"measurement": "Activity", "setting": "[10]", "value": "Non-Toxic"}, {"measurement": "Activity", "setting": "[11]", "value": "Non-Toxic"}, {"measurement": "Activity", "setting": "[12]", "value": "Non-Toxic"}, {"measurement": "Tmax", "setting": "[13]", "value": 0.96, "unit": "h"}, {"measurement": "Cmax", "setting": "[14]", "value": 40.4, "unit": "ng/mL"}, {"measurement": "Tmax", "setting": "[15]", "value": 1.58, "unit": "h"}, {"measurement": "AUC(0-t) at 12 h", "setting": "[16]", "value": 3210, "unit": "ng·h/mL"}, {"measurement": "MRT last at 12 h", "setting": "[17]", "value": 3.32, "unit": "h"}, {"measurement": "Cmax", "setting": "[18]", "value": 57.5, "unit": "ng/mL"}, {"measurement": "MRT last at 12 h", "setting": "[19]", "value": 4.05, "unit": "h"}, {"measurement": "CLH", "setting": "[20]", "value": 6.46, "unit": "µL/min/mg"}, {"measurement": "half-life at 10 µM", "setting": "[21]", "value": 1.14, "unit": "min"}, {"measurement": "Activity", "setting": "[22]", "value": "inactive"}, {"measurement": "Activity", "setting": "[23]", "value": "inactive"}, {"measurement": "Activity", "setting": "[24]", "value": "Active"}, {"measurement": "Activity", "setting": "[25]", "value": "inactive"}, {"measurement": "Activity", "setting": "[26]", "value": "Active"}, {"measurement": "Activity", "setting": "[27]", "value": "Active"}, {"measurement": "Activity", "setting": "[28]", "value": "inactive"}, {"measurement": "Activity", "setting": "[29]", "value": "inactive"}, {"measurement": "Activity", "setting": "[30]", "value": "Dose-Dependent Effect"}, {"measurement": "Activity", "setting": "[31]", "value": "inactive"}, {"measurement": "Activity", "setting": "[32]", "value": "Active"}, {"measurement": "Activity", "setting": "[33]", "value": "Active"}, {"measurement": "Activity", "setting": "[34]", "value": "inactive"}, {"measurement": "Activity", "setting": "[35]", "value": "inactive"}]}]}
